From ChEMBL document CHEMBL1201862, “PubChem BioAssay data set” (2004)
“And” between values parts separate entries of the source, which are not always exact repeats. Equal entries are not always repeated. Each block holds one molecule with its values, some of them ahead of it. The source made the active and inactive calls.

Legend:
[1] = biological target: Glyceraldehyde-3-phosphate dehydrogenase (Homo sapiens, UniProt P04406)
[2] = biological target: T1, Bcl-2-related protein A1 (Mus musculus, UniProt Q07440); test: Bfl-1 inhibitors blocking BH3 peptide binding, confirmation, biochemical, TR-FRET, mouse Bfl-1 (AID 621);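 also: TR-FRET binding of GST-Bfl-1 to FITC-labelled Bid peptide via terbium antibody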
T1 sequence (Q07440 whole entry): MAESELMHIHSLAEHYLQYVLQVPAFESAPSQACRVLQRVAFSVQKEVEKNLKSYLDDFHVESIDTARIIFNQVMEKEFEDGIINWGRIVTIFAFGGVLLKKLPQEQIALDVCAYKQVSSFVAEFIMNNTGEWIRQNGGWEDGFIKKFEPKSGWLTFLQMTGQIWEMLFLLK

[3] = biological target: T1, Bcl-2-related protein A1; test: Bfl-1 binding inhibitors, SAR follow-up, biochemical, fluorescence polarization (AID 1070)
[4] = biological target: T1, Bcl-2-related protein A1; test: Bfl-1 inhibitors, primary screen, biochemical, fluorescence polarization, FITC-Bid, mouse (AID 432)
[5] = non-specific cell cytotoxicity, dose response, cytotoxicity control for PAX8 inhibitor project, plate reader, dry powder samples (AID 743021); format: functional, cell-based
[6] = biological target: Paired box protein Pax-8 (Homo sapiens, UniProt Q06710); test: inhibitors of PAX8-driven TPO luciferase reporter, dose response, RMG-I cells, cherry-pick (AID 687027); format: functional, cell-based;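 also: luciferase reporter driven by Pax8 target thyroperoxidase promoter measured by SteadyGlo luminescence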
Sequence of Paired box protein Pax-8 (Q06710 whole entry): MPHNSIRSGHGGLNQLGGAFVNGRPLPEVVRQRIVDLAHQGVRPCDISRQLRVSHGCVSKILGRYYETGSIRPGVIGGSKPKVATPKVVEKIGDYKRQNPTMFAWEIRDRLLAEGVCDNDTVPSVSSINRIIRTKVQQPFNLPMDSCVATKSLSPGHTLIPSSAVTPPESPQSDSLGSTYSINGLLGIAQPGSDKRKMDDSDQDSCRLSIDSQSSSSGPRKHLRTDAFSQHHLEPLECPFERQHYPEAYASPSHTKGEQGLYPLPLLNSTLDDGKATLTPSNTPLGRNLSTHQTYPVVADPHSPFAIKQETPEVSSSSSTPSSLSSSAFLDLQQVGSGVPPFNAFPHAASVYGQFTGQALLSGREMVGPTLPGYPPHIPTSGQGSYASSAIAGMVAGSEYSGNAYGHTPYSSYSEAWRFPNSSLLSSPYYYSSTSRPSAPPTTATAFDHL

[7] = tested on: BJ; test: cytotoxicity toward Ras-transformed BJeLR fibroblasts, dose response, cell-based, alamar blue fluorescence, cherrypicked samples (AID 2631); format: functional; settings: Homo sapiens;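 also: confirmatory dose-response assay in RAS-dependent BJ fibroblasts engineered with TERT, LT and ST, with cytotoxicity read by fluorescence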
[8] = tested on: INS1; test: beta cell apoptosis inhibitors, cytokine rescue, dose response, luminescence, retest (AID 449756); format: functional, cell-based; settings: Rattus norvegicus;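 also: cell death triggered by IL-1 beta plus TNF-alpha plus IFN-gamma mixture; protective hits raise ATP signal compared with cytokine alone wells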
[9] = biological target: E3 ubiquitin-protein ligase Mdm2 (Homo sapiens, UniProt Q00987); test: enhancers of MDM2-luciferase reporter signal, concentration-effect titration, project on inhibitors of MDM2 ubiquitin ligase, cellular assay, luminescent readout, 384-well plate format (AID 1394); format: functional;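 also: MDM2 E3 inhibitors raise luminescence so EC50 is for signal enhancement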
Sequence of E3 ubiquitin-protein ligase Mdm2 (Q00987 whole entry): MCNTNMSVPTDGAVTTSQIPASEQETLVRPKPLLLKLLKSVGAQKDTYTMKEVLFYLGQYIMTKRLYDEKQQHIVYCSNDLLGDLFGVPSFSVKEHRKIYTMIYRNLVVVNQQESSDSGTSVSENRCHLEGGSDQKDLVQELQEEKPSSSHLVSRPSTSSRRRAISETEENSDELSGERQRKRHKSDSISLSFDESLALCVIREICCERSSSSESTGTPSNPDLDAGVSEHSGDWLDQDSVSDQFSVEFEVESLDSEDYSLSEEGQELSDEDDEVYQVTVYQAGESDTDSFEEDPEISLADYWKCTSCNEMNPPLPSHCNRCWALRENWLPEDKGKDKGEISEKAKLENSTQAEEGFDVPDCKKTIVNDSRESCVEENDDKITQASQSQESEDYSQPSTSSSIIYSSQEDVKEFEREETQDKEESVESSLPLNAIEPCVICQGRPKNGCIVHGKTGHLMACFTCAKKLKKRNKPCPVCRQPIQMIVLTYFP

[10] = NIH-3T3 fibroblast cytotoxicity, dose response, cytotoxicity control, cell-based, fluorescence, Alamar Blue, secondary assay (AID 2327); format: functional;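 also: NIH-3T3 mouse fibroblasts cultured with fluconazole at 8 µg/mL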
[11] = NIH:OVCAR-3 ovarian cancer cell cytotoxicity, dose response, PAX8 inhibitor project, plate reader, dry powder samples (AID 743044); format: functional, cell-based
[12] = PAX5 activity inhibitors, dose response, selectivity assay for PAX8 inhibitor project, cell-based, plate reader, dry powder samples (AID 743047); format: functional;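 also: HEK293 cells carrying a Pax5 driven CD19 promoter luciferase reporter; potency of inhibitors that lower reporter luminescence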
[13] = cytotoxicity dependent on PAX8, dose response, cell-based, plate reader, dry powder (AID 743049); format: functional
[14] = cytotoxicity in COV362 ovarian cancer cells, dose response, cytotoxicity control for PAX8 inhibitor project, cell-based, plate reader, dry powder, SA12 (AID 743144); format: functional
[15] = cytotoxicity in COV434 cells, dose response, cytotoxicity control for PAX8 inhibitor project, cell-based, plate reader, dry powder, SA7 (AID 743145); format: functional
[16] = cytotoxicity in OV-90 ovarian cancer cells, dose response, PAX8 inhibitor project, cell-based, plate reader, dry powder, SA8 (AID 743149); format: functional
[17] = cytotoxicity in OVCAR4 cells, dose response, cytotoxicity control for PAX8 inhibitor project, cell-based, plate reader, dry powder, SA11 (AID 743150); format: functional; settings: OVCAR-4
[18] = IGROV1 ovarian cancer cell cytotoxicity, dose response, PAX8 inhibitor project, plate reader, dry powder samples (AID 743043); format: functional, cell-based; settings: IGROV-1
[19] = cytotoxicity in OVCAR8 ovarian cancer cells, dose response, PAX8 project, cell-based, plate reader, dry powder samples (AID 743197); format: functional; settings: OVCAR-8
[20] = biological target: Vasopressin V2 receptor (Homo sapiens, UniProt P30518); test: Late-stage results from the probe development effort to identify antagonists of arginine vasopressin receptor 1a (AVPR1a): fluorescence-based cell-based dose response AVPR2 inhibition counterscreen assay.; format: functional
Sequence of Vasopressin V2 receptor (P30518 whole entry): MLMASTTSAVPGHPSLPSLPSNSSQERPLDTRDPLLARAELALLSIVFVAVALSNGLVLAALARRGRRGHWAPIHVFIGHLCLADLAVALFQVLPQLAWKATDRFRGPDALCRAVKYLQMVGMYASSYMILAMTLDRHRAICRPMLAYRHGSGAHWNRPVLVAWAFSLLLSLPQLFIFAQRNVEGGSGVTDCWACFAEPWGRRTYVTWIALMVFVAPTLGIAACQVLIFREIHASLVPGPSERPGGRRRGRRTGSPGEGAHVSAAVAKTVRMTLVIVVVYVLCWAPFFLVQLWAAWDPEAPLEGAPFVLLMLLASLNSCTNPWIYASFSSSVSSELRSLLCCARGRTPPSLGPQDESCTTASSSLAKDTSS

[21] = Late-stage results from the probe development effort to identify antagonists of arginine vasopressin receptor 1a (AVPR1a): fluorescence-based cell-based dose response AVPR1a inhibition assay.; format: functional
[22] = biological target: Vasopressin V1b receptor (Homo sapiens, UniProt P47901); test: Late-stage results from the probe development effort to identify antagonists of arginine vasopressin receptor 1a (AVPR1a): fluorescence-based cell-based dose response AVPR1b inhibition counterscreen assay.; format: functional
Sequence of Vasopressin V1b receptor (P47901 whole entry): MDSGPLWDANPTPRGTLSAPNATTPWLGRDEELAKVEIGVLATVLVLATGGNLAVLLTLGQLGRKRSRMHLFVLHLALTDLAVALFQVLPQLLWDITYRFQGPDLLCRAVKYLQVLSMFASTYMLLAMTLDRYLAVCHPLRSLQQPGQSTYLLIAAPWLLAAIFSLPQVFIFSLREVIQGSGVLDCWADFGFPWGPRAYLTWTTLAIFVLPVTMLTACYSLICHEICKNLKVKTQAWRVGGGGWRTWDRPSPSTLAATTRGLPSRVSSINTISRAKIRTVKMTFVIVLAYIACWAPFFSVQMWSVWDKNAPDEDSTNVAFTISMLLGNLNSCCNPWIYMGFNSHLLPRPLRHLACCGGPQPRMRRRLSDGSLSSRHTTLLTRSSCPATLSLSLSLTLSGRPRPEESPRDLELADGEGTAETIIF

[23] = Late-stage results from the probe development effort to identify antagonists of arginine vasopressin receptor 1a (AVPR1a): fluorescence-based cell-based dose response OXTR inhibition counterscreen assay.; format: functional
[24] = Dose-response inhibition of insulin secretion in a rat insulinoma line at 5 mM glucose (AID 1117331); format: functional, cell-based; settings: INS-1E
[25] = biological target: T2, NADPH oxidase 1 (Homo sapiens, UniProt Q9Y5S8); test: Late stage results from the probe development effort to identify inhibitors of NOX1: HEK/293 IC50. [Related pubchem assays: 1796 (Summary AID (NOX1)), 2752 (Primary screen (NOX1 inhibitors, synthesized analogs set 2)), 2664 (Primary screen (NOX1 inhibitors, synthesized analogs)), 1792 (Primary Screen (NOX1)), 2545 (Confirmation screen (NOX1 …; format: functional
T2 sequence (Q9Y5S8 whole entry): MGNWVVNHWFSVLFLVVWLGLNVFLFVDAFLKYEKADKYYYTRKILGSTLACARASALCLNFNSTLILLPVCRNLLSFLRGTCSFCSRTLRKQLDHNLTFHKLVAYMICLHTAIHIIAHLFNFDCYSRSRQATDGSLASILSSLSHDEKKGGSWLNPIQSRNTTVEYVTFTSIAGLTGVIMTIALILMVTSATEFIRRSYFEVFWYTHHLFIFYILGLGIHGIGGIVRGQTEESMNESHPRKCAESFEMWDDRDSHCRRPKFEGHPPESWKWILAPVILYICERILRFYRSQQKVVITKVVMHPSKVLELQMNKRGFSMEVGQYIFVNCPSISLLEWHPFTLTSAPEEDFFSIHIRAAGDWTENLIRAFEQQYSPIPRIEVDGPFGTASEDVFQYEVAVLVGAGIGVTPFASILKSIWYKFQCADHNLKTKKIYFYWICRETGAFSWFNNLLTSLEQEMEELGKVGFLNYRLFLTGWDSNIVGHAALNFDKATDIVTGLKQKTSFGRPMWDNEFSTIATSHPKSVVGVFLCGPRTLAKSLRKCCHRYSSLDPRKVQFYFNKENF

[26] = biological target: T2, NADPH oxidase 1; test: NOX1 inhibitors, concentration-response, dose response, cell-based, luminescence, cherry picks 2 (AID 434997); format: functional
[27] = biological target: Estrogen receptor beta (Homo sapiens, UniProt Q92731);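 also: recombinant ER-beta bound to coactivator SRC1 peptide in presence of estradiol agonist; inhibitors block coactivator peptide binding and lower the FRET signal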
Sequence of Estrogen receptor beta (Q92731 whole entry): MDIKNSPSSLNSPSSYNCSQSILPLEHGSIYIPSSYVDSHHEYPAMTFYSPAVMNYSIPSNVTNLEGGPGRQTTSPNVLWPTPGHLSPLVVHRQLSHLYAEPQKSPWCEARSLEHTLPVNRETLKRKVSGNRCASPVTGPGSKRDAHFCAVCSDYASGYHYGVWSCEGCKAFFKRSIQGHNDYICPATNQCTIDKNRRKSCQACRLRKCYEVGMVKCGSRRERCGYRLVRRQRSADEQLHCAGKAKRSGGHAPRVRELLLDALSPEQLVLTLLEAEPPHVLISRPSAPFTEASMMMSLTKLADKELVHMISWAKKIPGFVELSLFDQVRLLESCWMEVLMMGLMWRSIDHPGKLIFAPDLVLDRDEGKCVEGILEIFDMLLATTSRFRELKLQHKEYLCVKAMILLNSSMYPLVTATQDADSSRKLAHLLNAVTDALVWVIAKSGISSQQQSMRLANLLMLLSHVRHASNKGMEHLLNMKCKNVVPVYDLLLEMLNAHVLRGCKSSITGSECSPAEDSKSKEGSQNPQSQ

[28] = Artemis endonuclease inhibitor potency, dose response, biochemical, fluorescence intensity (AID 720701); format: functional;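 also: Artemis endonuclease enzyme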
[29] = inhibitors of Vif binding to APOBEC3G peptide, primary screen, biochemical, TR-FRET, GST-Vif 1-94, biotin-A3G peptide, dose response retest (AID 1117319); format: functional;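 also: TR-FRET signal of purified GST-Vif binding a biotinylated A3G peptide; inhibitors lower the FRET signal by blocking Vif and A3G binding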

Sequence of Glyceraldehyde-3-phosphate dehydrogenase (P04406 whole entry): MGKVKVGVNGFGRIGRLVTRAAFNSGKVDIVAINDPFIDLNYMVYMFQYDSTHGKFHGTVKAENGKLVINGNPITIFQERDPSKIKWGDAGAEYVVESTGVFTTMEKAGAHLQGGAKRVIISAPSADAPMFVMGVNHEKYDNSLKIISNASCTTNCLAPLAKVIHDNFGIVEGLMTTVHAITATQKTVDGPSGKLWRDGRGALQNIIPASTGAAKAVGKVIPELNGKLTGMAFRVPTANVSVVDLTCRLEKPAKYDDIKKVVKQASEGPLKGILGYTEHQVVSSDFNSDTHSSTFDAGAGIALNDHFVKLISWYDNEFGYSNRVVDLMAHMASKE

IC50 [1]: > 100 µM (not active) | IC50 [3]: > 100 µM (not active) | IC50 [4]: 4.79 µM (active)
SMILES: COc1ccccc1C(=O)C1Nc2ccccc2-c2nnc(SC)nc2O1 (stereo not given)
IC50 [2]: > 100 µM (not active) and 4.6 µM (active)

SMILES: CC(=O)/C=C/n1c(=S)oc2ccccc21
AC50 [5]: 10 µM (active) | AC50 [6]: 5.95 µM (active) | EC50 [7]: 0.508 µM (inconclusive) | AC50 [8]: 8.12 µM (active) | EC50 [9]: 0.01 µM (not active) | EC50 [10]: 3.97 µM (inconclusive)

SMILES: CN(C[C@H]1N[C@@H](CO)[C@@H]1c1ccc(C2=CCCC2)cc1)C(=O)c1ccncc1
AC50 [6]: 6.17 µM (active) | AC50 [11]: 10.9 µM (active) | AC50 [12]: > 32 µM (inactive) | AC50 [13]: 16.3 µM (active) | AC50 [14]: 21.1 µM (active) | AC50 [15]: 19.3 µM (active) | AC50 [16]: 47.5 µM (active) | AC50 [17]: 16.2 µM (active) | AC50 [18]: 16.2 µM (active) | AC50 [19]: 17.5 µM (active)

SMILES: COc1ccc(N(CC2CC2)C(=O)N2CCN(c3ncc(Cl)cc3Cl)CC2)cc1
IC50 [20]: 2.78 µM (active) | IC50 [21]: 0.0166 µM (active) | IC50 [22]: 3.1 µM (active) | IC50 [23]: 0.1 µM (active)

SMILES: COCCCOc1ccnc(C[S+]([O-])c2nc3ccccc3[nH]2)c1C (stereo not given) [RABEPRAZOLE SODIUM]
IC50 [24]: > 33.3 µM (inactive)

IC50 [25]: 1.81 µM (active) | IC50 [26]: 0.37 µM (active)
SMILES: COc1cc(-c2nc(-c3ccccc3)c(-c3ccccc3)[nH]2)ccc1O

IC50 [27]: > 50 µM (not active) | IC50 [28]: > 20 µM (inactive) | IC50 [29]: > 100 µM (active)
SMILES: COc1ccc(NC(=O)CSc2nc3c(cc2C#N)CN(C)CC3)cc1
